Laboratory results taken from patent publication US20120004235A1, “METHODS TO TREAT CANCER” (Rutgers, The State University of New Jersey, priority 2009, published 2012).
“And” between values parts separate entries of the source, which are not always exact repeats. Equal entries are not always repeated. Structures can show the parent of a compound that is named as a salt. Where two headings read alike, the source gives them in different places.

Columns and labels:
[1] = system: Human SK-MEL-3 Melanoma Tumor Xenograft Model; experiment: Test D xenograft, Compound 2 free base; assay type: in vivo, nu/nu mice; conditions: 90 mg/kg/day IP, qd × 5
Protocol: (§1) The anti-tumor activity of Compound 2 (free base) was evaluated against a variety of human tumor xenograft models. A summary of the studies, including tumor type, dosing and administration, growth inhibition, and major findings is presented below.

[2] = system: Human LOX-IMVI Melanoma Tumor Xenograft Model; experiment: Test D xenograft, Compound 2 free base; conditions: 90 mg/kg/day IP, qd × 5
[3] = system: Human H460 Non-Small Cell Lung Carcinoma Tumor Xenograft Model; experiment: Test D xenograft, Compound 2 free base; assay type: in vivo, nu/nu mice; conditions: qod × 3
Protocol: as §1

[4] = system: Human NCI-H292 Lung Tumor Xenograft Model; experiment: Test D xenograft, Compound 2 free base; conditions: qod × 3
[5] = system: Human H1299 Lung Tumor Xenograft Model; experiment: Test D xenograft, Compound 2 free base; conditions: qod × 3
[6] = system: Human MDA-MB-231 Breast Tumor Xenograft Model; experiment: Test D xenograft, Compound 2 free base; conditions: qod × 3
[7] = system: NCI-H460 human non-small cell lung carcinoma xenograft; experiment: Compound 2 citrate salt vs. NCI-H460 xenograft model (docetaxel control)
[8] = system: NCI-H460 human non-small cell lung carcinoma xenograft; experiment: Comparison dose schedule study in the NCI-H460 xenograft model; assay type: in vivo, nude (nu/nu) mice
From the text: Irinotecan served as the positive control.

[9] = system: MDA-MB-231 human breast tumor xenograft; conditions: for animals not yet reached the study endpoint of 1500 mm^3: Day 90
[10] = system: HT-29 human colon tumor xenograft; experiment: Compound 2 citrate salt vs. HT-29 human colon tumor model
[11] = system: HCT-116 human colon tumor xenograft; experiment: Compound 2 citrate salt vs. HCT-116 human colon tumor xenograft model (IV)
[12] = system: NCI-H460 human non-small cell lung carcinoma xenograft; experiment: Compound 2 citrate salt vs. NCI-H460 xenograft model (pemetrexed, topotecan, cisplatin controls); conditions: for mean tumor volume of the animals not at endpoint: 3 animals
[13] = system: human HCT-116 colon ca, HT-29 colon ca and NCI-H460 NSCLC cells; experiment: 72 hour exposure concentration response in tumor cells (Example 22); assay type: cell-based; conditions: range over HCT-116, HT-29 and NCI-H460 cells and the three compounds
Protocol: The in vitro and in vivo activity of compound 2 and two of its metabolites (compound 5 and compound 6) were explored and compared with the activity of camptothecin Top1 inhibitors. […] In human HCT-116 colon ca, HT-29 colon ca and NCI-H460 NSCLC cells the concentration response for compound 2, compound 5 and compound 6 were the same. […] Compound 2 was administered intravenously on a QODx3 schedule for 2 cycles.

[14] = system: Human HCT-116 Colon Tumor Xenograft Model; experiment: Test D xenograft, Compound 2 and metabolites; conditions: qod × 3 for 2 cycles
[15] = system: Human DLD-1 Colon Tumor Xenograft Model; experiment: Test D xenograft, Compound 2 free base; assay type: in vivo, nu/nu mice; conditions: 60 mg/kg/day IV
[16] = system: Human HCT-15 Colon Tumor Xenograft Model; experiment: Test D xenograft, Compound 2 free base; assay type: in vivo, nu/nu mice; conditions: 60 mg/kg/day IV, q4d×3
[17] = system: Human 786-0 Renal Cell Tumor Xenograft Model; experiment: Test D xenograft, Compound 2 free base; assay type: in vivo, nu/nu mice; conditions: 60 mg/kg/day IV, q4d×3
[18] = system: HCT-116 human colon tumor xenograft; experiment: Compound 2 after oral administration vs. the HCT-116 xenograft model; conditions: 60 mg/kg/day IP, q4d×3
[19] = 2.04 mg/kg/day IP, qod×3 weekly for 2 cycles
[20] = 2.72 mg/kg/day IP, qod×3 weekly for 2 cycles
[21] = 4.08 mg/kg/day IP, qod×3 weekly for 2 cycles
[22] = all dosages (0.68, 1.36, 2.72 mg/kg IP, qod×3 weekly for 2 cycles)
[23] = 1.36 mg/kg/day IV, qod×3 weekly for 2 cycles
[24] = 2.72 mg/kg/day IV, qod×3 weekly for 2 cycles
[25] = 2.72 mg/kg/day IP, qod×3 weekly for 2 cycles, Day 53
[26] = 60 mg/kg/day IP, qod×3 weekly for 2 cycles

CN(C)/N=N/c1[nH]cnc1C(N)=O [Dacarbazine, reference compound]
Increase in Life Span (ILS) [1]: 1.0x
Tumor Growth Delay T-C [1]: 0 days
Tumor Growth Inhibition T/C (tumor volume) [1]: 88.5%
Increase in Life Span (ILS) [2]: 2.0x
Tumor Growth Delay T-C [2]: 28 days and 14 days
Tumor Growth Inhibition T/C (tumor volume) [2]: 80.6%

CC(=O)O[C@@]12CO[C@@H]1C[C@H](O)[C@@]1(C)C(=O)[C@H](O)C3=C(C)[C@@H](OC(=O)[C@H](O)[C@@H](NC(=O)OC(C)(C)C)c4ccccc4)C[C@@](O)([C@@H](OC(=O)c4ccccc4)[C@H]21)C3(C)C [Docetaxel, reference compound]
Increase in Life Span (ILS) ([3]; 12 mg/kg/day IV): 1.4x
Tumor Growth Delay T-C ([3]; 12 mg/kg/day IV): 11 days
Tumor Growth Inhibition T/C (tumor volume) ([3]; 12 mg/kg/day IV): 49.8%
Increase in Life Span (ILS) ([4]; 16 mg/kg/day IV): 2.1x
Tumor Growth Delay T-C ([4]; 16 mg/kg/day IV): 39 days
Tumor Growth Inhibition T/C (tumor volume) ([4]; 16 mg/kg/day IV): 8.7%
Increase in Life Span (ILS) ([4]; 20 mg/kg/day IV): 2.1x
Tumor Growth Delay T-C ([4]; 20 mg/kg/day IV): 39 days
Tumor Growth Inhibition T/C (tumor volume) ([4]; 20 mg/kg/day IV): 6.0%
Increase in Life Span (ILS) ([5]; 16 mg/kg/day IV): 1.4x
Tumor Growth Delay T-C ([5]; 16 mg/kg/day IV): 11 days
Tumor Growth Inhibition T/C (tumor volume) ([5]; 16 mg/kg/day IV): 35.2%
Increase in Life Span (ILS) ([5]; 20 mg/kg/day IV): 1.6x
Tumor Growth Delay T-C ([5]; 20 mg/kg/day IV): 17 days
Tumor Growth Inhibition T/C (tumor volume) ([5]; 20 mg/kg/day IV): 20.7%
Increase in Life Span (ILS) ([6]; 16 mg/kg/day IV): >2.3x
Tumor Growth Delay T-C ([6]; 16 mg/kg/day IV): >47 days
Tumor Growth Inhibition T/C (tumor volume) ([6]; 16 mg/kg/day IV): 4.8%
Increase in Life Span (ILS) ([6]; 20 mg/kg/day IV): >2.3x
Tumor Growth Delay T-C ([6]; 20 mg/kg/day IV): >47 days
Tumor Growth Inhibition T/C (tumor volume) ([6]; 20 mg/kg/day IV): 4.0%
TGD (T-C) ([7]; 20 mg/kg/day IV, qod × 3): 21 days
TGI (T/C) ([7]; 20 mg/kg/day IV, qod × 3): 22.7%
time to recover the weight loss ([7]; 20 mg/kg/day IV, qod × 3): ≤ 13 days
toxic deaths ([7]; 20 mg/kg/day IV, qod × 3): no toxic deaths
maximum weight loss ([7]; 20 mg/kg/day IV, qod×3, on Day 25): 26.4%

CNCCn1c(=O)c2cc(OC)c(OC)cc2c2cnc3cc4c(cc3c21)OCO4 [Compound 2 citrate salt, 8,9-dimethoxy-2,3-methylenedioxy-5-[2-(N-methylamino)ethyl]-5H-dibenzo[c,h]1,6-naphthyridin-6-one]
maximum weight loss ([8]; 4.90 mg/kg/day IP, q4d×5, on Day 34): 24.2%
TGD [9, 19]: 52 days
animals not yet reached the study endpoint of 1500 mm^3 [9, 19]: 2 of 8
TGD [9, 20]: > 58 days
animals not yet reached the study endpoint of 1500 mm^3 [9, 20]: 4 of 8
ILS ([9]; 3.27 mg/kg/day IP, qd×5): > 2.0 fold
TGD (T-C) ([9]; 3.27 mg/kg/day IP, qd×5): 42 days
TGI (T/C) ([9]; 3.27 mg/kg/day IP, qd×5): 9.5%
maximum weight loss ([9]; 3.27 mg/kg/day IP, qd×5): 15.7%
mice remaining on Day 90 ([9]; 3.27 mg/kg/day IP, qd×5): one
TGI (T/C) [10, 20]: 50.1%
TGD ([10]; 2.72 mg/kg/day IP, qod×3 weekly for 2 cycles, vs untreated control): 16 days
ILS [10, 21]: 1.7 fold
TGD (T-C) [10, 21]: 31 days
TGI (T/C) [10, 21]: 18.9%
tolerability ([10]; dose levels tested (1.36, 2.72, 4.08 mg/kg/day IP, qod×3 weekly for 2 cycles)): well tolerated
ILS [7, 20]: 2.0 fold
TGD (T-C) [7, 20]: 24 days
TGI (T/C) [7, 20]: 35.1%
body weight loss [7, 22]: < 20%
toxic deaths [7, 22]: no toxic deaths
ILS [11, 23]: 1.6 fold
TGD (T-C) [11, 23]: 18 days
TGI (T/C) [11, 23]: 45.0%
ILS [11, 24]: > 2.2 fold
TGD [11, 24]: > 34 days
mice survivors at conclusion of the study ([11]; 2.72 mg/kg/day IV, qod×3 weekly for 2 cycles, Day 62): 50%
weight loss ([11]; 5.44 mg/kg/day IV, qod×3 weekly for 2 cycles): > 30%
toxic deaths ([11]; 5.44 mg/kg/day IV, qod×3 weekly for 2 cycles, groups of 8): ⅝
TGI (T/C) ([12]; 2.59 mg/kg/day IP, qd×5): 30.5%
toxic deaths [12, 20]: no toxic deaths
animals not yet reached the study endpoint of 2000 mm^3 [12, 25]: 3 of 8
weight loss recovered at study termination [12, 25]: approximately 12%
mean tumor volume of the animals not at endpoint [12, 25]: 1583 mm^3
maximum weight loss ([12]; 2.72 mg/kg/day IP, qod×3 weekly for 2 cycles, on Day 22): 22.3%
TGI (T/C) ([12]; 3.27 mg/kg/day IP, qd×5): 33.5%
animals not yet reached the study endpoint of 2000 mm^3 ([12]; 3.27 mg/kg/day IP, qd×5): 3 of 8
mean tumor volume of the animals not at endpoint ([12]; 3.27 mg/kg/day IP, qd×5): 1722 mm^3

CNCCn1c(=O)c2cc(O)c(OC)cc2c2cnc3cc4c(cc3c21)OCO4 [Compound 5]
IC50 ([13]; read-out: IC50 concentrations): 0.5 to 0.65 nM
IC90 ([13]; read-out: IC90 concentrations): 1.8 to 2 nM
Increase in Life Span (ILS) ([14]; 4 mg/kg/day IV): 1.8x
Tumor Growth Delay T-C ([14]; 4 mg/kg/day IV): 25 days
Tumor Growth Inhibition T/C (tumor volume) ([14]; 4 mg/kg/day IV): 27.3%
Increase in Life Span (ILS) ([14]; 6 mg/kg/day IV): 1.9x
Tumor Growth Delay T-C ([14]; 6 mg/kg/day IV): 28 days
Tumor Growth Inhibition T/C (tumor volume) ([14]; 6 mg/kg/day IV): 23.4%
Increase in Life Span (ILS) ([14]; 8 mg/kg/day IV): 2.0x
Tumor Growth Delay T-C ([14]; 8 mg/kg/day IV): 32 days
Tumor Growth Inhibition T/C (tumor volume) ([14]; 8 mg/kg/day IV): 27.2%

CCc1c2c(nc3ccc(OC(=O)N4CCC(N5CCCCC5)CC4)cc13)-c1cc3c(c(=O)n1C2)COC(=O)[C@]3(O)CC [Irinotecan, reference compound]
ILS ([8]; 60 mg/kg/day IP, q4d×3): 1.7 fold
TGD (T-C) ([8]; 60 mg/kg/day IP, q4d×3): 14 days
ILS [8, 26]: 2.5 fold
TGD (T-C) [8, 26]: 29 days
TGI (T/C) [8, 26]: 19.0%
Tumor Growth Delay T-C ([15]; q4d×3): 5 days
Increase in Life Span (ILS) ([15]; q4d × 3, listed as CPT-11): 1.1x
Increase in Life Span (ILS) [16]: 1.7x
Tumor Growth Delay T-C [16]: 28 days
Increase in Life Span (ILS) [17]: 1.4x
Tumor Growth Delay T-C [17]: 17 days
ILS [9, 26]: > 2.0 fold
TGD (T-C) [9, 26]: 38 days
TGI (T/C) [9, 26]: 10%
body weight loss [9, 26]: 20%
TGD ([10]; 60 mg/kg/day IV, q4d×3): no TGD was observed
TGI (T/C) ([10]; 60 mg/kg/day IV, q4d×3): 52.7%
tolerability ([10]; 60 mg/kg/day IV, q4d×3): well tolerated
ILS [18]: > 1.5 fold
TGD (T-C) [18]: > 18 days
body weight loss [18]: < 10%
animals remaining at study termination ([18]; Day 53): 8 of 9
ILS ([11]; 60 mg/kg/day IV, q4d×3): 1.5 fold
TGD (T-C) ([11]; 60 mg/kg/day IV, q4d×3): 14 days
tolerability ([11]; 60 mg/kg/day IV, q4d×3): tolerated well

N.N.[Cl][Pt][Cl] [Cisplatin]
Increase in Life Span (ILS) ([3]; 3.3 mg/kg/day IP): 1.4x
Tumor Growth Delay T-C ([3]; 3.3 mg/kg/day IP): 11 days
Tumor Growth Inhibition T/C (tumor volume) ([3]; 3.3 mg/kg/day IP): 44.5%
antitumor activity ([12]; 0.75 and 1.5 mg/kg/day IP, qd×5): only active at the high dose
antitumor activity (TGI and TGD evaluation points) ([12]; high dose (1.5 mg/kg/day IP, qd×5)): low activity at both evaluation points
